The values below come from patent US11510924B2, “Deuterated pharmaceutical compositions and methods of treating cardiovascular diseases” (priority 2017, dated 2022).

In one series the test system is bradycardia patients. Briefly: API combinations tested on bradycardia patients (Examples 1-3). In kind it is in vivo, human. Conditions: observed on some patients. The procedure: During the testing of the 4-API combination on bradycardia patients, a few adverse side effects were observed on some patients. […] Therefore, a further study was conducted to determine how to avoid or reduce such side effects. […] To confirm this finding, clenbuterol was replaced by albuterol in the 4-API combination, which has a similar secondary therapeutic effect on heart rate. […] Daily electrocardiograms were used to monitor the bradycardia patients. […] With this improvement, the effectiveness of the treatment on bradycardia patients was retained while the undesired side effects were minimized or eliminated.

Another series has as its system volunteer subjects. Briefly: Heart rate effect of API combinations in volunteer subjects (Examples 1-3). Conditions: added API in combination with aminophylline and clenbuterol; small group of volunteer subjects.
For the next series, the system named is patient. Briefly: Clinical observation of heart rate in patients treated for other indications. Conditions: vertigo patient, after administering betahistine.

Protocol for volunteer subjects: To test this hypothesis, an experiment was conducted, where a combination of aminophylline and clenbuterol was administered to a small group of volunteer subjects. […] For each subject in this example, an electrocardiogram (ECG) was used to monitor heart rate and A-V conduction abnormalities.
To further improve the effect of the aminophylline and clenbuterol combination on the heart rate, various combinations with active pharmaceutical ingredients were investigated. Without being bound by theory, the hypothesis in this experiment was to utilize a combination of APIs with similar mechanism of action or with the same side effect (a secondary therapeutical effects) on heart as aminophylline and clenbuterol. Oryzanol, nicotinamide, or anisodamine in combination with aminophylline and clenbuterol was tested on a small group of volunteer subjects.
Nifedipine (a calcium channel blocker) was then selected and tested.
A combination of betahistine with aminophylline, clenbuterol, and nifedipine was then prepared and tested on a small group of healthy volunteer subjects.

Turning to `CC(C)(C)NCC(O)c1cc(Cl)c(N)c(Cl)c1` (centres unmarked) [clenbuterol], the adverse side effects result with bradycardia patients was “these side effects were related to clenbuterol”.

For `NC(=O)c1cccnc1` [nicotinamide], the “effect on heart rate compared with aminophylline and clenbuterol combination (Example 1)” value in the series with volunteer subjects is on record as “no further improvement”.

On to `CNCCc1ccccn1` [betahistine], for which the “effect on heart rate” value with patient is “noticeably increased”.

On to Oryzanol, for which, in the series with volunteer subjects, the “effect on heart rate compared with aminophylline and clenbuterol combination (Example 1)” value was “no further improvement”.

`CN1[C@H]2C[C@H](OC(=O)[C@H](CO)c3ccccc3)C[C@@H]1[C@@H](O)C2` [anisodamine]: the “effect on heart rate compared with aminophylline and clenbuterol combination (Example 1)” value in the series on volunteer subjects was “no further improvement”.
